Columns and labels:
[1] = test system: ovariectomized (OVX) rats; experiment: Bone mineral density in the ovariectomized (OVX) rats (1); type: in vivo, Sprague-Dawley rats; conditions: orally five times a week for 4 weeks; for Spinal BMD: L2-L4
Description: Bone Mineral Density in the Ovariectomized (OVX) Rats (1)
The compounds of the present invention were prepared as exemplified above, dissolved in a vehicle (medium chain triglyceride, MCT) and diluted to a given concentration. The stock solutions were protected from light and stored at 4° C.
Eight-month-old female Sprague-Dawley (Crl:CD(SD)) rats were purchased from Charles River Japan Inc. (Kanagawa, Japan) and acclimated under standard laboratory conditions at 24±2° C. and 50-60% humidity. The rats were allowed free access to tap water and commercial standard rodent chow CE-2 (Clea Japan Inc., Japan).
Sham-operated (n=8) and the ovariectomized (OVX) rats were used. The OVX rats were divided into each group (n=8) one day after the surgery. In the sham and OVX control groups, rats received the vehicle (MCT) p.o. at a dose of 1 ml/kg body weight (BW) five times a week. Each compound was given orally five times a week for 4 weeks. These animal studies were carried out in accordance with Chugai Pharmaceutical's ethical guidelines for animal care, and the experimental protocols were approved by the animal care committee of the institution.
During the 24 hours from the last administration, urine was collected with metabolic cage, and blood was drawn from the abdominal aorta under ether anesthesia. Blood and urine samples were centrifuged to obtain the supernatant, which were stored at −20° C. until assay. The lumbar vertebrae and femur were removed. The lumbar vertebra and the right femur were stored in 70% ethanol at 4° C. for the measurement of bone mineral density (BMD).
(§1) Serum and Urine Biochemistry
Serum calcium (Ca) and inorganic phosphorus (Pi) concentrations were measured with an autoanalyzer (Hitachi 7170, Tokyo, Japan). The serum osteocalcin concentration was measured with Osteocalcin rat ELISA system (Amersham Pharmacia Biotech, Tokyo, Japan). Urinary Ca, Pi, and creatinine (Cre) were measured with an autoanalyzer. Urinary deoxypyridinoline (D-Pyr) was measured using a Metra DPD EIA kit (Quidel Co., USA), and the data were corrected for urinary Cre concentrations.
(§2) Measurement of Bone Mineral Density
The second through fourth lumbar vertebaral (L2-L4) BMD (mg/cm^2) and femoral BMD were measured by dual-energy X-ray absorptiometry (DCS-600-EX, Aloka, Japan).

[2] = test system: ECAC2 mRNA in Caco-2 cells; type: cell-based
How it was run: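 Caco-2 cells grown 4 days, then exposed 1 day at 37° C to compounds in medium with 10% FBS, refreshed twice daily. ECAC2 mRNA by one-step TaqMan RT-PCR, normalized to GAPDH. EC50 from Emax model, expressed as ratio to LG190178 EC50.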

[3] = test system: ovariectomized (OVX) rats; experiment: Bone mineral density in the ovariectomized (OVX) rats (2); type: in vivo, Sprague-Dawley rats; conditions: orally seven times a week for 4 weeks; for Spinal BMD: L2-L5
Description: Bone Mineral Density in the Ovariectomized (OVX) Rats (2)
Alfacalcidol was synthesized in Chugai Pharmaceutical Co., Ltd., Japan, dissolved in a vehicle (medium chain triglyceride, MCT) and diluted to a given concentration. The stock solutions were protected from light and stored at 4° C.
Eight-month-old female Sprague-Dawley (Crl:CD(SD)) rats were purchased from Charles River Japan Inc. (Kanagawa, Japan) and acclimated under standard laboratory conditions at 23±2° C. and 40-70% humidity. The rats were allowed free access to tap water and commercial standard rodent chow CRF-1 (Oriental Yeast Co. Ltd., Japan).
Sham-operated (n=8) and the ovariectomized (OVX) rats were used. The OVX rats were divided into each group (n=8) one day after the surgery. In the sham and OVX control groups, rats received the vehicle (MCT) p.o. at a dose of 1 ml/kg body weight (BW) every day. Each compound was given orally seven times a week for 4 weeks.
During the 24 hours from the last administration, urine was collected with metabolic cage, and blood was drawn from the jugular vein under ether anesthesia. Blood and urine samples were centrifuged to obtain the supernatant, which were stored at −20° C. until assay. The lumbar vertebrae and femora were removed. The lumbar vertebra and the right femur were stored i 70% ethanol at 4° C. for the measurement of bone mineral density (BMD).
as §1
Serum calcium (Ca) and inorganic phosphorus (Pi) concentrations were measured with an autoanalyzer (Hitachi 7170, Tokyo, Japan). The serum osteocalcin concentration was measured with Osteocalcin rat ELISA system (Smersham Pharmacia Biotech, Tokyo, Japan). Urinary Ca, Pi, and creatinine (Cre) were measured with an autoanalyzer. Urinary deoxypyridinoline (D-Pyr) was measured using a Metra DPD EIA kit (Quidel Co., USA), and the data were corrected for urinary Cre concentrations.
as §2
The second through fifth lumbar vertebaral (L2-L5) BMD (mg/cm^2) and femoral BMD were measured by dual-energy X-ray absorptiometry (DCS-600-EX, Aloka, Japan).

Q: With `CCC(CC)(c1ccc(CCC(O)C(C)(C)C)c(C)c1)c1ccc(OC[C@H](O)CCC(=O)[O-])c(C)c1.[Na+]` (stereo partly drawn) [Example 140, 5-(4-{1-Ethyl-1-[4-(3-hydroxy-4,4-dimethyl-pentyl)-3-methyl-phenyl]-propyl}-2-methyl-phenoxy)-4(R)-hydroxy-pentanoic acid sodium salt] as the compound, how does the “serum Ca” value ([1]; 0.75 microgram/kg/week) read?
A: 10.0 mg/dL

Q: And the “Spinal BMD” value ([1]; 0.75 microgram/kg/week)?
A: 186.6 mg/cm2

Q: And the “ECaC-2 mRNA induction activity in Caco-2 cells” value (“ECaC-2 mRNA induction activity” below) [2]?
A: 53%

Q: What does the source list for `C=C1/C(=C\C=C2/CCC[C@]3(C)[C@@H]([C@H](C)CCCC(C)C)CC[C@@H]23)C[C@@H](O)C[C@@H]1O` [Alfacalcidol]?
A: serum Ca ([3]; 0.125 microgram/kg/week): 10.2 mg/dL; Spinal BMD ([3]; 0.125 microgram/kg/week): 182.1 mg/cm2; serum Ca ([3]; 0.25 microgram/kg/week): 10.6 mg/dL; Spinal BMD ([3]; 0.25 microgram/kg/week): 180.9 mg/cm2; serum Ca ([3]; 0.5 microgram/kg/week): 10.7 mg/dL; Spinal BMD ([3]; 0.5 microgram/kg/week): 185.1 mg/cm2

Q: For `CCC(CC)(c1ccc(/C=C/C(O)(C(F)(F)F)C(F)(F)F)c(C)c1)c1ccc(OC[C@H](O)CCCO)c(C)c1` [Example 154, (R)-5-(4-{1-Ethyl-1-[3-methyl4-((E)-4,4,4-trifluoro-3-hydroxy-3-trifluoromethyl-but-1-enyl)-phenyl]-propyl}-2-methyl-phenoxy)-pentane-1,4-diol], which “ECaC-2 mRNA induction activity” value [2] is on record?
A: 1784%

Q: For `CCC(CC)(c1ccc(OCC(O)CO)c(C)c1)c1ccc(OCC(O)C(C)(C)C)c(C)c1` (stereo not drawn) [LG190178, reference compound], which “ECaC-2 mRNA induction activity” value [2] is on record?
A: 100%

Q: For `CCC(CC)(c1ccc(/C=C/C(O)(C(F)(F)F)C(F)(F)F)c(C)c1)c1ccc(OCCCCc2nnn[nH]2)c(C)c1` [Example 115, (E)-4-[4-(1-ethyl-1-{3-methyl-4-[4-(1 H-tetrazol-5-yl)-butoxy]-phenyl}-propyl)-2-methyl-phenyl]-1,1,1-trifluoro-2-trifluoromethyl-but-3-en-2-ol], which “ECaC-2 mRNA induction activity” value [2] is on record?
A: 91%

Q: Which “ECaC-2 mRNA induction activity” value [2] does the source give for `CCC(O)(/C=C/c1ccc(C(CC)(CC)c2cc(C)c(OC[C@@H]3CCC(=O)O3)c(C)c2)cc1C)CC` [Example 166, (S)-5-(4-{1-Ethyl-1-[4-((E)-3-ethyl-3-hydroxy-pent-1-enyl)-3-methyl-phenyl]-propyl}-2,6-dimethyl-phenoxymethyl)-dihydro-furan-2-one] here?
A: 86%

Q: Which “ECaC-2 mRNA induction activity” value [2] does the source give for `CCC(CC)(c1ccc(/C=C/C(O)(C(F)(F)F)C(F)(F)F)c(C)c1)c1ccc(OC[C@H]2CCCC(=O)O2)c(C)c1` [Example 61, (R)-6-(4-{1-ethyl-1-[3-methyl4-((E)4,4,4-trifluoro-3-hydroxy-3-trifluoromethyl-but-1-enyl)-phenyl]-propyl}-2-methyl-phenoxymethyl)-tetrahydro-pyran-2-one] here?
A: 918%

Q: How did the “ECaC-2 mRNA induction activity” value [2] turn out when `CCC(CC)(c1ccc(CCC(O)(C(F)(F)F)C(F)(F)F)c(C)c1)c1ccc(OCC(CO)CO)c(C)c1` [Example 79, 2-(4-{1-ethyl-1-[3-methyl-4-(4,4,4-trifluoro-3-hydroxy-3-trifluoromethyl-butyl)-phenyl]-propyl}-2-methyl-phenoxymethyl)-propane-1,3-diol] was run?
A: 178%

Q: With `CCC(O)(/C=C/c1ccc(C(CC)(CC)c2ccc(OCC(CO)CO)c(C)c2)cc1C)CC` [Example 72, 2-(4-{1-Ethyl-1-[4-((E)-3-ethyl-3-hydroxy-pent-1-enyl)-3-methyl-phenyl]-propyl}-2-methyl-phenoxymethyl)-propane-1,3-diol] as the compound, how does the “ECaC-2 mRNA induction activity” value [2] read?
A: 542%

Q: For `CCC(CC)(c1ccc(C#CC(O)(C(F)(F)F)C(F)(F)F)c(C)c1)c1ccc(OC[C@H]2CCCC(=O)O2)c(C)c1` [Example 59, (R)-6-(4-{1-Ethyl-1-[3-methyl4-(4,4,4-trifluoro-3-hydroxy-3-trifluoromethyl-but-1-ynyl)-phenyl]-propyl}-2-methyl-phenoxymethyl)-tetrahydro-pyran-2-one], which “ECaC-2 mRNA induction activity” value [2] is on record?
A: 117%

Q: `CCC(CC)(c1ccc(CCC(O)C(C)(C)C)c(C)c1)c1ccc(OC[C@H](O)CCC(=O)[O-])c(C)c1.[Na+]` (stereo partly drawn) [Example 141, 5-(4-{1-Ethyl-1-[4-(3-hydroxy4,4-dimethyl-pentyl)-3-methyl-phenyl]-propyl}-2-methyl-phenoxy)4(R)-hydroxy-pentanoic acid sodium salt] was tested. Which “serum Ca” value ([1]; 7.5 microgram/kg/week) did it give?
A: 10.1 mg/dL

Q: And the “Spinal BMD” value ([1]; 7.5 microgram/kg/week)?
A: 184.4 mg/cm2

Q: And the “ECaC-2 mRNA induction activity” value [2]?
A: 31%

Q: For `CCC(CC)(c1ccc(/C=C/C(O)C(C)(C)C)c(C)c1)c1ccc(OC[C@@H](O)CCC(=O)O)c(C)c1` (stereo partly drawn) [Example 28, 5-(4-{1-ethyl-1-[4-((E)-3-hydroxy-4,4-dimethyl-pent-1-enyl)-3-methyl-phenyl]-propyl}-2-methyl-phenoxy)-4(S)-hydroxy-pentanoic acid], which “ECaC-2 mRNA induction activity” value [2] is on record?
A: 2093%

Q: Which “ECaC-2 mRNA induction activity” value [2] does the source give for `CCC(CC)(c1ccc(CCC(O)C(C)(C)C)c(C)c1)c1ccc(OCCCCC(=O)O)c(C)c1` (stereo not drawn) [Example 80, 5-(4-{1-ethyl-1-[4-(3-hydroxy-4,4-dimethyl-pentyl)-3-methyl-phenyl]-propyl}-2-methyl-phenoxy)-pentanoic acid] here?
A: 518%

Q: For `CCC(CC)(c1ccc(/C=C/C(O)(C(F)(F)F)C(F)(F)F)c(C)c1)c1ccc(OC[C@H]2CCCO2)c(C)c1` [Example 155, (E)4-[4-(1-Ethyl-1-{3-methyl4-[(R)-1-(tetrahydro-furan-2-yl)methoxy]-phenyl}-propyl)-2-methyl-phenyl]-11,11-trifluoro-2-trifluoromethyl-but-3-en-2-ol], which “ECaC-2 mRNA induction activity” value [2] is on record?
A: 86%

Q: Which “ECaC-2 mRNA induction activity” value [2] does the source give for `CCC(O)(/C=C/c1ccc(C(CC)(CC)c2ccc(OCC(=O)NCCN)c(C)c2)cc1C)CC` [Example 195, (E)-N-(2-Amino-ethyl)-2-(4-{1-ethyl-1-[4-(3-ethyl-3-hydroxy-pent-1-enyl)-3-methyl-phenyl]-propyl}-2-methyl-phenoxy)-acetamide] here?
A: 135%
